Test results reported in US12187681B2 (Shanghai East Hospital, priority 2019, dated 2025).
Counter-ions that a name gives are not always drawn.

What was measured:
[1] = molecular target: T1, hERG (human ether-a-go-go related gene potassium channel, KCNH2) (Homo sapiens, UniProt Q12809); assay: hERG channel whole-cell patch clamp (Ion Channel Activity Measurement); format: cell-based; conditions: human, room temperature; for inhibition at 1 μM: pH 7.4, 1 μM test article; for inhibition at 10 μM: pH 7.4, 10 μM test article
T1 construct: expressed in transfected cells; host or cells: HEK293
Protocol: HEK293 cell line expressing the human ERG (ether-a-go-go related gene) potassium channel (Potassium voltage-gated channel subfamily H member 2). cDNA strictly similar to GenBank accession number: NM_000238
(§1) Cells expressing channels were cultured in medium supplemented with 20% FBS in HAM'S F12 culture dish. Cells grew in a humidified incubator at 37° C. under 5% carbon dioxide. To passage cells, remove poor medium and rinse the cells once with PBS 1X. […] Place plate on a 37° C. warming incubator 5 min. As soon as cells are detached, add 5 ml of 37° C. complete medium. Draw cell suspension into a sterile pipet and homogenize cells gently to dissociate cells aggregates. Amplify or maintain the cells by seeding 2.5*105 cells in a 6 cm dish (final volume: 5 ml). To maintain electrophysiological performances, cell density must not exceed 80%. On the day before patch clamp experiment, 3*103 cells were seeded on coverslips in the 24-well plate and incubated at 37° C. in 5% carbon dioxide.
(§2) Glass pipette (BF150-86-10, Sutter Instruments) was made by puller (P97, Sutter Instruments). The glass pipette was manipulated using Micro-manipulator (Carm-C-S, MCI Instruments) under the microscope (AE31EF-INV, Motic). After touching the cell, a slight suction was applied to achieve high seal (GΩ). Fast capacitance (in pF) compensation was made after high seal was achieved; after achieving high seal, the membrane was broken, Cell capacitance (in pF) compensation was made from whole-cell capacitance compensation after the whole cell mode was achieved. No leak subtraction was made.
(§3) Cell was incubated with the test article for 5 minutes, or until the current reached a steady-state level. Multiple concentrations of test article were tested. The test articles were applied gradually from low to high concentration. The test and control solutions were flown into a recording chamber mounted on the stage of an inverted microscope via a gravity-fed solution delivery system. During the experiment, solutions were withdrawn from the recording chamber by vacuum aspiration. Each concentration was tested at multiple times. Each cell acted as its own control. All tests were performed at room temperature (23-25° C.).
hERG current was recorded under a holding potential at −80 mV and then depolarized to 30 mV for 2.5 seconds to activate the hERG channel. The peak tail currents were induced by a repolarizing pulse to −50 mV for 4 seconds. This voltage-clamp pulse protocol was performed continuously during the experiment. An interpulse interval of 10 seconds allowed recovery from inactivation. An interpulse of −50 mV test for 0.5 second before 30 mV depolarized step was included for leak current correction

[2] = molecular target: T2, CaV1.2 (L-type voltage-dependent calcium channel; CACNA1C, CACNB2, CACNA2D1) (Homo sapiens, UniProt Q13936); assay: CaV1.2 channel whole-cell patch clamp (Ion Channel Activity Measurement); format: cell-based; conditions: human, room temperature; for inhibition at 5 min, 1 μM: pH 7.4, 1 μM test article; for inhibition at 5 min, 10 μM: pH 7.4, 10 μM test article, read-out: CaV 1.2 10 μM (ion-channel inhibition)
T2 construct: expressed in transfected cells; host or cells: CHO
Protocol: • CHO cell line stably expressing human calcium channel, voltage-dependent, L type, • CACNA1C: cDNA strictly similar to GenBank accession number: NM_000719 • CACNB2: cDNA strictly similar to GenBank accession number: NM_000724 • CACNA2D1: cDNA strictly similar to GenBank accession number: NM_000722 Iks Channel Cell Line:
as §1
Bath solution: 140 mM TEA-C1, 2 mM MgCl2·6H2O, 10 mM CaCl2, 10 mM HEPES, 5 mM D-glucose, pH=7.4 with TEA-OH. Pipette solution: 120 mM CsCl, 1 mM MgCl2·6H2O, 10 mM HEPES, 10 mM EGTA, 0.3 mM Na2-GTP, 4 mM Mg-ATP, pH=7.2 with CsOH.
as §2, §3
Cav1.2 current was recorded under a holding potential at −80 mV and then depolarized to +10 mV for 0.3 seconds. This protocol was repeated at 20 s intervals to observe the effect of test articles on the peak of Cav1.2 current.

[3] = HEK293 cells expressing the human ERG potassium channel

T1 sequence (Q12809 whole entry): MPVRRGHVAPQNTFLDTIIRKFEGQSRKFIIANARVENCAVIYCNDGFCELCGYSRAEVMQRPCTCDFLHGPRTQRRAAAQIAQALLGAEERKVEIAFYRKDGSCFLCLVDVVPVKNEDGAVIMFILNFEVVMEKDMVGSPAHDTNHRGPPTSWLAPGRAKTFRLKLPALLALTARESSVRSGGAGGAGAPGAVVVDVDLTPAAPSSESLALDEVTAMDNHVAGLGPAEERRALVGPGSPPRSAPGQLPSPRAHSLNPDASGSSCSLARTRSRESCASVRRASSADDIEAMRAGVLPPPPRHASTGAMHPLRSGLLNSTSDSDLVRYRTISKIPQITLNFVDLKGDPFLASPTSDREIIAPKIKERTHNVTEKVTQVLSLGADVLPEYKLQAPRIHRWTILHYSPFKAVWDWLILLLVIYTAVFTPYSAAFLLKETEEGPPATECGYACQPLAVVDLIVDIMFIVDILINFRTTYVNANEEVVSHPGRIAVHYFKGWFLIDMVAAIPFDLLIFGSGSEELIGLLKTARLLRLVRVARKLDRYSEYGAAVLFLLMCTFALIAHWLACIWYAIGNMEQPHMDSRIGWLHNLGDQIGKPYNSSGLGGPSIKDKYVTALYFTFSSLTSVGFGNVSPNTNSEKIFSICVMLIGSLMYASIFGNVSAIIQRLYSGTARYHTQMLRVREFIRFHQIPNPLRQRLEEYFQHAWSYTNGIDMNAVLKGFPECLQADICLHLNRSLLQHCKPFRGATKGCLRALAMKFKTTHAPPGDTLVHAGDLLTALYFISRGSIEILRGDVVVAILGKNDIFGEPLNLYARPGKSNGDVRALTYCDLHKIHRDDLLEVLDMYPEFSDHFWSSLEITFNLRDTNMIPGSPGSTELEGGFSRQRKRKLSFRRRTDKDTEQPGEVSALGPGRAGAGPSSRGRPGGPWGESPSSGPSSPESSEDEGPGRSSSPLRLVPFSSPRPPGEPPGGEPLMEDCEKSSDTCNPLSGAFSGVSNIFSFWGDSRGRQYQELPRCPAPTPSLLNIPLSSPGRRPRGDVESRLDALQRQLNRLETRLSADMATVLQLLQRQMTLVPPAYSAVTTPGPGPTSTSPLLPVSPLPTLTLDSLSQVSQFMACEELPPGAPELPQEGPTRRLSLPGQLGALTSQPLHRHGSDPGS
T2 sequence (Q13936 1-2138 isoform Q13936-12): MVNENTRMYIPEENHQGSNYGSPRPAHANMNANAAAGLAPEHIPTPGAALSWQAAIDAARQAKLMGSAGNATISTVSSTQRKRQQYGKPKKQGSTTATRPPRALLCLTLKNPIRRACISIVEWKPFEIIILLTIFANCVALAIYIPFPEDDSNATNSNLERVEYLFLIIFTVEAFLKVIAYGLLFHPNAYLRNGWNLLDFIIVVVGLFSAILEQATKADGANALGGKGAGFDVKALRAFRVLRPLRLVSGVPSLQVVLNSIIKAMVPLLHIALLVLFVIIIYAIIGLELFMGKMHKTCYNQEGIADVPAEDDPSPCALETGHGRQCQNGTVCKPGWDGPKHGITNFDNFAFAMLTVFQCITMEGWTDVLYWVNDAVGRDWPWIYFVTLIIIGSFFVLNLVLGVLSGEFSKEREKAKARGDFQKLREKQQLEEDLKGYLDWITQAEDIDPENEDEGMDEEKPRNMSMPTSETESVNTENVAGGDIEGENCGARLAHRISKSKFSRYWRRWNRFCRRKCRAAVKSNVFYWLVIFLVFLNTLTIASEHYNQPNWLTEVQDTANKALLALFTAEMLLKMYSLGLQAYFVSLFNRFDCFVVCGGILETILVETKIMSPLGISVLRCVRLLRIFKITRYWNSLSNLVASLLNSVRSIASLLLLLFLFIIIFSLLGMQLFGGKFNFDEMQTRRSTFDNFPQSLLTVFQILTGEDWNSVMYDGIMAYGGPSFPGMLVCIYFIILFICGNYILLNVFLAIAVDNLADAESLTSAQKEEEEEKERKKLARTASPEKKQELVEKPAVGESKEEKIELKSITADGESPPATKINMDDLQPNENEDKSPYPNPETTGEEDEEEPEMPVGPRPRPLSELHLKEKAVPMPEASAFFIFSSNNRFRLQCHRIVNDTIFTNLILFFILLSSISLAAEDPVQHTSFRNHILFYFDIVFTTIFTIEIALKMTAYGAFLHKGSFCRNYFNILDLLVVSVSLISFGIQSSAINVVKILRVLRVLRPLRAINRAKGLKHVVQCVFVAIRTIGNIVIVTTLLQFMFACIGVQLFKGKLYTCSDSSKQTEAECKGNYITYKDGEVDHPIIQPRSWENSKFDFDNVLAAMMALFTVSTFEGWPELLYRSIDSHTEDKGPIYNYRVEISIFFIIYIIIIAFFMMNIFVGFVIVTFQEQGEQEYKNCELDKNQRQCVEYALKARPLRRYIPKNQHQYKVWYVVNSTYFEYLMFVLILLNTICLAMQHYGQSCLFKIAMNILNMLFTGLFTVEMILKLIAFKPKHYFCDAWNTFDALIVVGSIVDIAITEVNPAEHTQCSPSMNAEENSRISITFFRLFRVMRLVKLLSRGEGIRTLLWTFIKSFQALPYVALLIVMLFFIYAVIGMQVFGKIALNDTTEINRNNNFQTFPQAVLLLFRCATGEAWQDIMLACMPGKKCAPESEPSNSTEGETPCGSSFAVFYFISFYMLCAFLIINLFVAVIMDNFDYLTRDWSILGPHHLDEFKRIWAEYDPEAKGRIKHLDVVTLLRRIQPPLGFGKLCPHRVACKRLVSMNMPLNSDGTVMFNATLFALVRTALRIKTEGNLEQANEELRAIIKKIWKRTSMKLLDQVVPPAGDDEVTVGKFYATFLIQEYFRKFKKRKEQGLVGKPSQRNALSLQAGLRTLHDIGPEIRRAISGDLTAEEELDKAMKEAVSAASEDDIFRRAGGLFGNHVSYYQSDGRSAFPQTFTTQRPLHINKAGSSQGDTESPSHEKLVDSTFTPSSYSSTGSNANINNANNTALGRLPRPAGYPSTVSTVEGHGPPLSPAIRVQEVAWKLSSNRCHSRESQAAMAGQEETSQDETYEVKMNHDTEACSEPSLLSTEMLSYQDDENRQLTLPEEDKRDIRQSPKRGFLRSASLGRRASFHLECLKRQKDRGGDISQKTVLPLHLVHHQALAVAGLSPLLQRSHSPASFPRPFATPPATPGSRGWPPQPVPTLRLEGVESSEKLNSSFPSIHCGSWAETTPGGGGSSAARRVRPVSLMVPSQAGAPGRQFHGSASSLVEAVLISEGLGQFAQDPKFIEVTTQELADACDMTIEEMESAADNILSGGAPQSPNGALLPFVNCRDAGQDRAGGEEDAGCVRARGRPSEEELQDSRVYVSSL
T2 sequence (Q08289 1-605 isoform Q08289-2 partner): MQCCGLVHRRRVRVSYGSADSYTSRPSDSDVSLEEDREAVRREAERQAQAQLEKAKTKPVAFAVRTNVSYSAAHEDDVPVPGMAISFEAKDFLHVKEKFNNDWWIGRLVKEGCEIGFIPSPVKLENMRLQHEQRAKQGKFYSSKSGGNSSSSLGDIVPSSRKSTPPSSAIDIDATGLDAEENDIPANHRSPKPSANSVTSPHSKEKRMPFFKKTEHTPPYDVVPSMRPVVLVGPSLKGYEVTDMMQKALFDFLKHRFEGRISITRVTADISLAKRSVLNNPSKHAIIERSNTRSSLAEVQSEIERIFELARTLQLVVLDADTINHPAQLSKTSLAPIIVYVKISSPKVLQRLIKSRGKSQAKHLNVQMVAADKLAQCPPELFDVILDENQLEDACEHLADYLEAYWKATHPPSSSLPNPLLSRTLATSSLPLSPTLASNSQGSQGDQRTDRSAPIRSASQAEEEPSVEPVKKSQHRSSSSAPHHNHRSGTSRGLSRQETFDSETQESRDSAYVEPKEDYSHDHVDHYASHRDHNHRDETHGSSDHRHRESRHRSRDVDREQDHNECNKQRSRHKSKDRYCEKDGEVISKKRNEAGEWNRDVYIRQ
T2 sequence (P54289 25-1091 isoform P54289-2 partner limits assumed): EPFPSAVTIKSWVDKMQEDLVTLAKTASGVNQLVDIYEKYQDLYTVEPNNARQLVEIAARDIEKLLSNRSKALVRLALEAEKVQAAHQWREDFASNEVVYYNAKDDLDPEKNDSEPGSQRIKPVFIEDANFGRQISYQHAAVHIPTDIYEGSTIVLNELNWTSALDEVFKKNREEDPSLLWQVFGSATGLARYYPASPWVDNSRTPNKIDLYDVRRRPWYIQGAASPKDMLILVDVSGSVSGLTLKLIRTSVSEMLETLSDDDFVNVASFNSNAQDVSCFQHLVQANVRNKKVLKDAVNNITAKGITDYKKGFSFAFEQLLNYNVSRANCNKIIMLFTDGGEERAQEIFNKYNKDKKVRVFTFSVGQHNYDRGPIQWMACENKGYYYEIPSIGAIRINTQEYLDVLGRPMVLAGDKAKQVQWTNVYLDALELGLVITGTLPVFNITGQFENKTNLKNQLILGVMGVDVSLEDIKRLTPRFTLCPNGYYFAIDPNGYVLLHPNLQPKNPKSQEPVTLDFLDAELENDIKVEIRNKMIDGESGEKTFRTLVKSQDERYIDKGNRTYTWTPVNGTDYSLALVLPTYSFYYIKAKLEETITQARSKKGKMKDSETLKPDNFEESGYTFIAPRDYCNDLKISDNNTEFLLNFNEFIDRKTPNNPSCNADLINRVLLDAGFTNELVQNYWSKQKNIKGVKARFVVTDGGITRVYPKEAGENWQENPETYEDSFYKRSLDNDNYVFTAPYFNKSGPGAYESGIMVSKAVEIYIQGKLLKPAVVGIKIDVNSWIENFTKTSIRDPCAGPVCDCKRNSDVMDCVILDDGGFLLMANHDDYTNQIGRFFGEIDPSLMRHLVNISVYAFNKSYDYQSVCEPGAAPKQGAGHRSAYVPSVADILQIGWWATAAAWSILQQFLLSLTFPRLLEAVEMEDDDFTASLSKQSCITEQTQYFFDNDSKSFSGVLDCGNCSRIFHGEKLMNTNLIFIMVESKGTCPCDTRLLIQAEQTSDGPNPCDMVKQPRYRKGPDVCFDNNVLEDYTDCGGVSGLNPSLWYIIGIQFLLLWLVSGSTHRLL
T2 sequence (P54289 957-1103 partner limits assumed): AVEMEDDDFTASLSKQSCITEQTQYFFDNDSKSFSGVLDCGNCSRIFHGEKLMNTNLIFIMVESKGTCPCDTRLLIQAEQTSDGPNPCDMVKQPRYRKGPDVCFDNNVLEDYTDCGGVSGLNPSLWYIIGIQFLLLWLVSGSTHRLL

Structure (SMILES)	inhibition at 1 μM [1, 3] [%]	inhibition at 10 μM [1, 3] [%]	inhibition at 5 min, 1 μM [2] [%]	inhibition at 5 min, 10 μM [2] [%]	inhibition at 1 μM [1] [%]	inhibition at 10 μM [1] [%]
Cc1ccc(O)c(Cc2c(O)ccc(C)c2C)c1C [Compound A017, 2,2′-methylenebis(3,4-dimethylphenol)]	< 25	25 to 50	< 25	25 to 50		
COc1ccc2ccccc2c1Cc1c(OCC[N+]2(C)CCCC2)ccc2ccccc12 [Compound A129-2, 1-(2-((1-((2-methoxynaphthalen-1-yl)methyl)naphthalen-2-yl)oxy)ethyl)-1-methylpyrrolidin-1-ium formate]	25 to 50		25 to 50	75 to 100		
Oc1ccc2ccccc2c1Cc1c(O)ccc2ccncc12 [Compound A109, 8-((2-hydroxynaphthalen-1-yl)methyl)isoquinolin-7-ol]	< 25	75 to 100	25 to 50	50 to 75		
CCOCOc1ccc2ccccc2c1Cc1c(OCCN)ccc2ccccc12 [Compound A244, 2-((1-((2-(ethoxymethoxy)naphthalen-1-yl)methyl)naphthalen-2-yl)oxy)ethan-1-amine]	75 to 100	75 to 100	< 25	25 to 50		
CC(C)Oc1ccc2ccccc2c1Cc1c(OCCN2CCCC2)ccc2ccccc12 [Compound A256, 1-(2-((1-((2-isopropoxynaphthalen-1-yl)methyl)naphthalen-2-yl)oxy)ethyl)pyrrolidine]	50 to 75	75 to 100	< 25	75 to 100		
CCN(CC)CCOc1ccc2cc(C(=O)O)ccc2c1Cc1c(O)ccc2cc(C(=O)O)ccc12 [Compound A125, 5-((6-carboxy-2-(2-(diethylamino)ethoxy)naphthalen-1-yl)methyl)-6-hydroxy-2-naphthoic acid]	< 25		< 25	75 to 100		
Oc1c(F)cc2ccccc2c1Cc1c(O)c(F)cc2ccccc12 [Compound A049, 1,1′-methylenebis(3-fluoronaphthalen-2-ol)]	< 25	50 to 75	< 25	50 to 75		
CCN(CC)CCNC(=O)c1ccc2ccccc2c1Cc1c(OC)ccc2ccccc12 [Compound A238, N-(2-(diethylamino)ethyl)-1-((2-methoxynaphthalen-1-yl)methyl)-2-naphthamide]	75 to 100	75 to 100	25 to 50	75 to 100		
Oc1ccc2ccccc2c1Cn1nc(-c2ccccc2)cc1O [Compound A059]			< 25	< 25	< 25	< 25
COc1ccc2ccccc2c1Cc1c(OCCO)ccc2ccccc12 [Compound A139-2, 2-((1-((2-methoxynaphthalen-1-yl)methyl)naphthalen-2-yl)oxy)ethan-1-ol]	75 to 100	75 to 100	< 25	75 to 100		
CC(c1c(O)ccc2ccccc12)c1c(O)ccc2ccccc12 [Compound A012, 1,1′-(ethane-1,1-diyl) bis (naphthalen-2-ol)]	< 25	25 to 50	< 25	75 to 100		
O=C(O)c1ccc2c(Cc3c(O)ccc4ccccc34)c(O)ccc2c1 [Compound A114, 6-hydroxy-5-((2-hydroxynaphthalen-1-yl)methyl)-2-naphthoic acid]	< 25	50 to 75	< 25	< 25		
Oc1ccc2ccccc2c1Cc1c(OCCN2CCCCC2)ccc2ccccc12 [Compound A138, 1-((2-(2-(piperidin-1-yl)ethoxy)naphthalen-1-yl)methyl)naphthalen-2-ol]	75 to 100		< 25	75 to 100		
COc1cc2ccccc2c(Cc2c(O)c(OC)cc3ccccc23)c1O [Compound A050, 1,1′-methylenebis(3-methoxynaphthalen-2-ol)]	< 25	< 25	< 25	< 25		
Nc1ccc2ccccc2c1Cc1c(N)ccc2ccccc12 [Compound A022, 1,1′-methylenebis(naphthalen-2-amine)]			< 25	50 to 75	< 25	50 to 75
Nc1ccc2ccccc2c1Cc1c(O)ccc2ccccc12 [Compound A021, 1-((2-aminonaphthalen-1-yl)methyl)naphthalen-2-ol]	< 25	< 25	< 25	< 25		
COc1cccc(C2CCNCC2)c1Cc1c(OC)cccc1C1CCNCC1 [Compound A194]			25 to 50	50 to 75	< 25	25 to 50
CCN(CC)CCOc1ccc2ccccc2c1Cc1c(O)c(C)cc2ccccc12 [Compound A098, 1-((2-(2-(diethylamino)ethoxy)naphthalen-1-yl)methyl)-3-methylnaphthalen-2-ol]	25 to 50	75 to 100	< 25	< 25		
COc1ccc(COCc2ccc3ccccc3c2C(O)c2c(COCc3ccc(OC)cc3)ccc3ccccc23)cc1 [Compound A080, bis(2-(((4-methoxybenzyl)oxy)methyl)naphthalen-1-yl)methanol]	< 25	< 25	< 25	25 to 50		
COc1ccc2ccccc2c1Cc1c(OCCN(CCO)CCO)ccc2ccccc12 [Compound A195, 2,2′-((2-((1-((2-methoxynaphthalen-1-yl)methyl)naphthalen-2-yl)oxy)ethyl)azanediyl)bis(ethan-1-ol)]	75 to 100	75 to 100	< 25	75 to 100		
CC(C)(O)c1cc2ccccc2c(Cc2c(O)c(C(C)(C)O)cc3ccccc23)c1O [Compound A047, 1,1′-methylenebis(3-(2-hydroxypropan-2-yl)naphthalen-2-ol)]	< 25		< 25	50 to 75		
Oc1cccc2c1C(c1c(O)ccc3c1CCCC3)CCC2 (centres unmarked) [Compound A077-2, 1′,2′,3′,4′,5,6,7,8-octahydro-[1,1′-binaphthalene]-2,8′-diol]	< 25	50 to 75	< 25	< 25		
CCOc1ccc2ccccc2c1Cc1c(OCCN2CCCC2)ccc2ccccc12 [Compound A255, 1-(2-((1-((2-ethoxynaphthalen-1-yl)methyl)naphthalen-2-yl)oxy)ethyl)pyrrolidine]	75 to 100	75 to 100	< 25	75 to 100		
COc1cccc(-c2ccncc2)c1Cc1c(O)cccc1-c1ccncc1 [Compound A118-I-1, 2-(2-methoxy-6-(pyridin-4-yl)benzyl)-3-(pyridin-4-yl)phenol]	< 25	25 to 50	< 25	< 25		
